In patent US11413278B2, “Compounds and methods for promoting stress resistance” (priority 2015, dated 2022):
Like-named read-outs stand apart in the source and are kept apart here.

Legend:
[1] = biological target: T1, human PARP1 (Homo sapiens, UniProt P09874); assay: PARP inhibitor assay (HT Fluorescent Homogeneous PARP Inhibition Assay Kit); format: biochemical; settings: for L = PARP inhibition: score
T1 construct: purchased Trevigen
Outline: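 Compounds (10 μM final) incubated 30 min, room temperature, dark, with human PARP1, nicotinamide adenine dinucleotide and activated DNA. Fluorescent signal generated by 1 hr cycling with diaphorase and resazurin, then reaction stopped.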

[2] = test system: WI-38 cells; assay: CdCl2 (cadmium) resistance assay; format: cell-based, human; settings: for fold induction at 10 µM: Homo sapiens, 12 h, normalized ATP measurement; for Assay 4: H2O2- & Cd-resistant / Assay 2: Cadmium-resistant: YES/NO; for Assay 2: Cadmium-resistant: * indicates partial
Outline: (§1)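 Resistance to CdCl2 or MMS stress (12 h exposure) was scored in WI-38 fibroblasts pretreated with compound at 0.25–20 μM final, five doses, technical triplicates. MMS plates had compound added 24 h before MMS, after a shift to serum-free DMEM+2% BSA. Significance came from a global variance t-test over two independent runs.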

[3] = test system: WI-38 cells; assay: MMS resistance assay; format: cell-based, human; settings: for fold induction at 10 µM: Homo sapiens, 12 h, normalized ATP measurement; for Triple resistant: H2O2, CdCl2 and MMS
Outline: as §1

[4] = test system: C. elegans; assay: C. elegans lifespan assays (liquid and plate); format: in vivo, Caenorhabditis elegans; settings: for ILS at 60 µM / ILS at 66 µM: Caenorhabditis elegans; for O = Life span- extending scores in worms: score scale 0 to 2, 4 to 6 independent trials; for M = Lifespan-extending scores in worms: summary score
[5] = test system: phosphorylated γH2A.X and TP53BP1; assay: DNA damage marker analysis (immuno-staining); settings: for activity at 10 µM: Homo sapiens, WI-38, 24 h; for P = Potential DNA-damaging / R = Potential DNA damaging: human, 24 h
Protocol: WI-38 cells were seeded on 96-well plates and cultured for 24 hrs and then incubated with small molecules for another 24 hrs. As the positive control to damage DNA, H2O2 was supplemented at 700 μM final concentration for the last 3 hrs. Cells were washed with phosphate-buffered saline (PBS), fixed with 4% paraformaldehyde and then blocked with 5% normal goat serum (Cell Signaling), plus 0.3% Triton X-100, for 1 hr. Primary antibody cocktail (rabbit anti-phospho-histone γH2A.X (Ser-139), 1:100; anti-phospho-TP53BP1 (Ser-1778), 1:100), prepared in 1% BSA and 0.3% Triton X-100/PBS, was then introduced and incubated overnight at 4 C. Next day, samples were washed with PBS and further incubated with fluorophore-conjugated secondary antibody (1:1,000) for 1 hr in the dark. Samples were then washed and incubated with DAPI dye (Life Technologies) (4 μg/ml final concentration) for the last 10 minutes. Images were collected on an INCell Analyzer 2000 (GE) and analyzed with the Developer software.
WI-38 cells were seeded (˜8,000 cells per well) on 96-well plates and cultured for 24 hrs and then incubated with small molecules for another 24 hrs. Doxorubicin (300 nM, 24 hrs) and H2O2 (700 μM, 3 hrs) were also introduced as the positive controls to damage DNA. Cells were washed with phosphate-buffered saline (PBS), fixed with 4% paraformaldehyde for 30 min and then blocked with 5% normal goat serum (Cell Signaling) and 0.3% Triton X-100 for 1 hr. Primary antibody cocktail (Cell Signaling, rabbit anti-phospho-histone γH2A.X (Ser-139), 1:100; anti-phospho-TP53BP1 (Ser-1778), 1:100) was prepared in PBS with 1% BSA and 0.3% Triton X-100 and incubated overnight at 4° C. Next day, samples were washed with PBS and further incubated with fluorophore-conjugated secondary antibody (1:1,000) for 1 hr in dark. Samples were then washed and incubated with DAPI dye (Life Technologies) (4 μg/ml final concentration) for 30 minutes. Images were collected on the INCell Analyzer 2000 (10× objective) and analyzed with the Developer Toolbox.

[6] = Exp. 1, WI-38 cells, read-out: Exp. 1, under Cd2Cl2 stress treatment, at 10 uM (fold change)
[7] = Exp. 2, WI-38 cells, read-out: Exp. 2, under Cd2Cl2 stress treatment, at 10 uM (fold change)
[8] = WI-38 cells, 10 μM, both stressors
[9] = score in summary of 38 core set hits
[10] = Exp. 1, WI-38 cells, read-out: Exp. 1, under MMS stress treatment, at 10 uM (fold change)
[11] = Exp. 2, WI-38 cells, read-out: Exp. 2, under MMS stress treatment, at 10 uM (fold change)
[12] = in liquid, wild type, with FuDR, 1.0 × 10^9 bacteria/ml, read-out: relative change of mean lifespan vs control, Trial 1
[13] = in liquid, wild type, with FuDR, 2.5 × 10^9 bacteria/ml, read-out: relative change of mean lifespan vs control, Trial 2
[14] = on plate, CF512 temperature-sensitive sterile animals, without FuDR, 2.0 × 10^10 bacteria/ml, read-out: relative change of mean lifespan vs control, Trial 3
[15] = Assay 2(z), 1.0 × 10^9 bacteria/ml, wild type + FuDR (2012 July), read-out: Lifespan assay in liquid
[16] = Assay 3(aa), 2.5 × 10^9 bacteria/ml, wild type + FuDR, read-out: Lifespan assay in liquid
[17] = Assay 4(ab), 2.0 × 10^10 bacteria/ml, CF512 worms, no FuDR, read-out: Lifespan assay on plates
[18] = read-out: Experiment 1, H2A.X-P DNA damage foci staining (no H2O2 stress treatment), at 10 uM
[19] = read-out: Experiment 2, H2A.X-P DNA damage foci staining (no H2O2 stress treatment), at 10 uM
[20] = read-out: Experiment 2, H2A.X-P DNA damage foci staining (under H2O2 stress treatment), at 10 uM
[21] = read-out: Experiment 2, TP53BP1-P DNA damage foci staining (no H2O2 stress treatment), at 10 uM

T1 sequence (P09874 whole entry): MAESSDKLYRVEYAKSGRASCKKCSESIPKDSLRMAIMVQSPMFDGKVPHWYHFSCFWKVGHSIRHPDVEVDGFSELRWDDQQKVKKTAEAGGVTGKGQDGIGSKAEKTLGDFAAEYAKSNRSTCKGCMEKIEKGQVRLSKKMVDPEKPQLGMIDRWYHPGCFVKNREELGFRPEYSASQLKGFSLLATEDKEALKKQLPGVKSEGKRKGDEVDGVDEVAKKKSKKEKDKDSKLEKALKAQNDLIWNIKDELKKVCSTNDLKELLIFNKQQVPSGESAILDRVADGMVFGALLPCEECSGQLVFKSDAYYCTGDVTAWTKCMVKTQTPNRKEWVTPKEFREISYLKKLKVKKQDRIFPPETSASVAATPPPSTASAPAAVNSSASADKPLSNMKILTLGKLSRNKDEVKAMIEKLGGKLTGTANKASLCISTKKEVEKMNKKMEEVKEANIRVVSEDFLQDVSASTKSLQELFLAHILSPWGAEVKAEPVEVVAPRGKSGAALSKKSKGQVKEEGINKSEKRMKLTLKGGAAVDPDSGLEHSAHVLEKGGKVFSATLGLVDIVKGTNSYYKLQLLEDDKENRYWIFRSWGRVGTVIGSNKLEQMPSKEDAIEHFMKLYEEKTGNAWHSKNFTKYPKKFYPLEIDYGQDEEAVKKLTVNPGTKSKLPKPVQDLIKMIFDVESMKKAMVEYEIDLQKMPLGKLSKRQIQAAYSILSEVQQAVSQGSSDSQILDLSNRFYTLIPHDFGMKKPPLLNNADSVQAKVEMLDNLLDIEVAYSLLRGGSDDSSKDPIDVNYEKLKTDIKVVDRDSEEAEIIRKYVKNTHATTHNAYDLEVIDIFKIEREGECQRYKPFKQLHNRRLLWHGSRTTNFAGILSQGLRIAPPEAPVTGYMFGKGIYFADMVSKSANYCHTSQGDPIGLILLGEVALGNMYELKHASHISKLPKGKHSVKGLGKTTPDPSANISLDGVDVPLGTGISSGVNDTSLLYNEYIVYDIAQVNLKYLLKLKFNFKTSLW

**Q.** Which results are given for `CCc1ccccc1NC(=O)c1ccc([N+](=O)[O-])o1` [Gr-1C]?
**A.** L = PARP inhibition [1]: 0; CdCl2-resistant [2]: YES; H2O2- & CdCl2-resistant [2]: YES; fold induction at 10 µM [2, 6]: 7.9; fold induction at 10 µM [2, 7]: 9.86; CdCl2-resistant ([2]; WI-38 cells, 10 μM): YES; H2O2- & CdCl2-resistant [2, 8]: YES; Assay 4: H2O2- & Cd-resistant [2]: YES; Assay 2: Cadmium-resistant [2]: YES; A = Cadmium resistant [2, 9]: 1; A = Cadmium resistant ([2]; summary score): 1; C = H2O2- & Cd-resistant ([2]; summary score): 1; fold induction at 10 µM [3, 10]: 0.73; fold induction at 10 µM [3, 11]: 0.39; B = MMS resistant [3, 9]: 0; B = MMS resistant ([3]; summary score): 0; D = Triple resistant ([3]; summary score): 0; ILS at 60 µM [4, 12]: 14.4%; ILS at 60 µM [4, 13]: 1.7%; ILS at 60 µM [4, 14]: 14.7%; ILS at 66 µM [4, 15]: 14.4%; ILS at 66 µM [4, 16]: 1.7%; ILS at 66 µM [4, 17]: 14.7%; O = Life span- extending scores in worms [4]: 1 (1 for lifespan extension observed in 2 trials); M = Lifespan-extending scores in worms [4]: 1 (1 for lifespan extension observed in 2 trials); activity at 10 µM [5, 18]: 217%; activity at 10 µM [5, 19]: 311%; activity at 10 µM [5, 20]: 178%; activity at 10 µM [5, 21]: 375%; activity at 10 µM ([5]; read-out: Experiment 2, TP53BP1-P DNA damage foci staining (under H2O2 stress treatment), at 10 uM): 552%; P = Potential DNA-damaging [5]: 1; R = Potential DNA damaging [5]: 1

**Q.** For `Cc1cc(N)n(-c2ccccc2C(=O)O)n1` [Gr-6A], which “Inhibition of PARP1” value ([1]; 10 μM, in vitro) is on record?
**A.** inhibitors of PARP1

**Q.** What about the “L = PARP inhibition” value [1] of the same compound?
**A.** 1

**Q.** What about the CdCl2-resistant [2] of the same compound?
**A.** YES

**Q.** What about the “H2O2- & CdCl2-resistant” value [2] of the same compound?
**A.** YES

**Q.** What about the fold induction at 10 µM [2, 6] of the same compound?
**A.** 2.46

**Q.** What about the fold induction at 10 µM [2, 7] of the same compound?
**A.** 2.36

**Q.** What about the CdCl2-resistant ([2]; WI-38 cells, 10 μM) of the same compound?
**A.** YES

**Q.** What about the “H2O2- & CdCl2-resistant” value [2, 8] of the same compound?
**A.** YES

**Q.** And the “Assay 4: H2O2- & Cd-resistant” value [2]?
**A.** YES

**Q.** What about the “Assay 2: Cadmium-resistant” value [2] of the same compound?
**A.** YES

**Q.** What about the “A = Cadmium resistant” value [2, 9] of the same compound?
**A.** 1

**Q.** What about the “A = Cadmium resistant” value ([2]; summary score) of the same compound?
**A.** 1

**Q.** What about the “C = H2O2- & Cd-resistant” value ([2]; summary score) of the same compound?
**A.** 1

**Q.** What about the MMS-resistant [3] of the same compound?
**A.** YES

**Q.** What about the “Multiplex resistance to cadmium, MMS and H2O2” value ([3]; 0.25 μM to 20 μM, repurchased molecules) of the same compound?
**A.** reproducibly conferred multiplex resistance

**Q.** And the Triple resistant [3]?
**A.** YES

**Q.** What about the fold induction at 10 µM [3, 10] of the same compound?
**A.** 2.2

**Q.** And the fold induction at 10 µM [3, 11]?
**A.** 7.2

**Q.** What about the MMS-resistant ([3]; WI-38 cells, 10 μM) of the same compound?
**A.** YES

**Q.** And the Triple resistant ([3]; WI-38 cells, 10 μM)?
**A.** YES

**Q.** What about the “Assay 3: MMS-resistant” value ([3]; YES/NO, * indicates partial) of the same compound?
**A.** YES

**Q.** And the “Assay 5: Triple resistant” value ([3]; YES/NO, H2O2, cadmium and MMS)?
**A.** YES

**Q.** And the “B = MMS resistant” value [3, 9]?
**A.** 1

**Q.** And the “B = MMS resistant” value ([3]; summary score)?
**A.** 1

**Q.** And the “D = Triple resistant” value ([3]; summary score)?
**A.** 2

**Q.** And the ILS at 60 µM [4, 12]?
**A.** 5.5%

**Q.** And the ILS at 60 µM [4, 13]?
**A.** 6.8%

**Q.** What about the ILS at 60 µM ([4]; on plate, CF512 temperature-sensitive sterile animals, without FuDR, 1.0 × 10^11 bacteria/ml, read-out: relative change of mean lifespan vs control, Trial 4) of the same compound?
**A.** -2.7%

**Q.** What about the ILS at 60 µM [4, 14] of the same compound?
**A.** 16.9%

**Q.** And the ILS at 66 µM [4, 15]?
**A.** 5.5%

**Q.** And the ILS at 66 µM [4, 16]?
**A.** 6.8%

**Q.** What about the ILS at 66 µM [4, 17] of the same compound?
**A.** 16.9%

**Q.** What about the ILS at 66 µM ([4]; Assay 5(ac), 1.0 × 10^11 bacteria/ml, CF512 worms, no FuDR, read-out: Lifespan assay on plates) of the same compound?
**A.** -2.7%

**Q.** What about the “O = Life span- extending scores in worms” value [4] of the same compound?
**A.** 0

**Q.** What about the “M = Lifespan-extending scores in worms” value [4] of the same compound?
**A.** 0

**Q.** And the activity at 10 µM [5, 18]?
**A.** 117%

**Q.** And the activity at 10 µM [5, 19]?
**A.** 59.9%

**Q.** What about the activity at 10 µM [5, 20] of the same compound?
**A.** 200%

**Q.** What about the activity at 10 µM [5, 21] of the same compound?
**A.** 138%

**Q.** What about the “P = Potential DNA-damaging” value [5] of the same compound?
**A.** 0

**Q.** And the “R = Potential DNA damaging” value [5]?
**A.** 0
